# Laboratory results taken from patent publication US20080311158A1, “Hepatitis C Virus Replication System” (priority 2004, published 2008).
# “Also recorded” adds a separate entry of the source.
# Columns and labels:
# [1] = test system: E1 and E2 distribution in 21-5/R809 cells; assay: Intracellular immunofluorescence of E1/E2 in 21-5/R809 cells before and after IFN-α treatment; format: cell-based, human; conditions: anti E1/E2 staining, FIG. 16
# Protocol: Cells were stained with anti E1/E2.
# Cells were plated on […] coverslips in 24-well plates at a density of 5×10^4 cells per well. One day after seeding, cells were washed in PBS, fixed in 4% formaldehyde for 30 min and then permeabilized with 0.1% Triton X-100 in PBS for 15 min. Cells were then pretreated with blocking solution (0.5% bovin serum albumin in PBS) for 30 min and incubated for 1 h at room temperature with the primary antibodies diluted in blocking solution according to the manufacturer's instructions. After three washes in PBS, AlexaFluor-conjugated secondary antibodies were added to the cells at a 1:200 dilution for 1 h at room temperature. After washings with PBS, coverslips were washed in distilled water, and mounted in aqueous mounting medium Vectashield with DAPI (4′,6′-diamidino-2-phenylindole).
# [2] = test system: HCV RNA in 21-5/R809 cells; assay: HCV RNA levels after IFN-α treatment of 21-5/R809 cell culture; format: cell-based, hepatitis C virus; conditions: 21-5/R809 cells incubated with IFN-α
# Excerpt: FIGS. 17 and 18 show levels of HCV RNA or ribosomal RNA after IFN-α treatment of cell culture.
# [3] = test system: HCV replication; conditions: reference 101; cited from earlier work
substance,measurement,setting,value
Interferon alpha [IFN-α],ER-pattern distribution of E1 and E2,[1],lose the typical ER-pattern distribution of E1 and E2; also recorded: changed the ER-pattern distribution of E1 and E2
same,"HCV RNA levels, absolute",[2]; FIG. 17,decrease
same,HCV RNA levels relative to ribosomal RNA,[2]; FIG. 18,decrease
same,HCV replication in cell culture,[3],inhibit HCV replication
